Laboratory results: PubChem BioAssay (NCI)
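These data come from cells grown in 96-well plates and exposed to compound for 48 hours at five concentrations. The concentration for 50% growth inhibition is given as GI50. TGI denotes the concentration required for complete inhibition of growth.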

Assays:
Experiment in all cases: NCI-60 cell line screen, 48 h
SNB-19 CNS = test system: SNB-19 CNS
NCI-H226 lung = test system: NCI-H226 lung
HOP-92 NSCLC = test system: HOP-92 NSCLC
SK-MEL-28 melanoma = test system: SK-MEL-28 melanoma
HL-60(TB) leukemia = test system: HL-60(TB) leukemia
HS 578T breast = test system: HS 578T breast
M14 melanoma = test system: M14 melanoma
LOX IMVI melanoma = test system: LOX IMVI melanoma
MDA-MB-231 breast = test system: MDA-MB-231 breast
HCC-2998 colon = test system: HCC-2998 colon
786-0 renal = test system: 786-0 renal
SN12C renal = test system: SN12C renal
SK-OV-3 ovarian = test system: SK-OV-3 ovarian
SNB-75 CNS = test system: SNB-75 CNS
CAKI-1 renal = test system: CAKI-1 renal
UACC-62 melanoma = test system: UACC-62 melanoma
NCI-H23 lung = test system: NCI-H23 lung
NCI/ADR-RES ovarian = test system: NCI/ADR-RES ovarian
KM12 colon = test system: KM12 colon
UO-31 renal = test system: UO-31 renal
SF-539 CNS = test system: SF-539 CNS
SF-295 CNS = test system: SF-295 CNS
MOLT-4 leukemia = test system: MOLT-4 leukemia
TK-10 renal = test system: TK-10 renal
ACHN renal = test system: ACHN renal
SW-620 colon = test system: SW-620 colon
OVCAR-3 ovarian = test system: OVCAR-3 ovarian
T-47D breast = test system: T-47D breast
SF-268 CNS = test system: SF-268 CNS
U251 CNS = test system: U251 CNS
BT-549 breast = test system: BT-549 breast
RPMI-8226 leukemia = test system: RPMI-8226 leukemia
MDA-MB-435 = test system: MDA-MB-435
PC-3 prostate = test system: PC-3 prostate
HCT-116 colon = test system: HCT-116 colon
K-562 leukemia = test system: K-562 leukemia
NCI-H460 lung = test system: NCI-H460 lung
UACC-257 melanoma = test system: UACC-257 melanoma
HOP-62 NSCLC = test system: HOP-62 NSCLC
A549 NSCLC = test system: A549 NSCLC
OVCAR-5 ovarian = test system: OVCAR-5 ovarian
NCI-H522 lung = test system: NCI-H522 lung
HCT-15 colon = test system: HCT-15 colon
DU-145 prostate = test system: DU-145 prostate
CCRF-CEM leukemia = test system: CCRF-CEM leukemia
EKVX NSCLC = test system: EKVX NSCLC
SR leukemia = test system: SR leukemia
OVCAR-4 ovarian = test system: OVCAR-4 ovarian
A498 renal = test system: A498 renal
MALME-3M melanoma = test system: MALME-3M melanoma
OVCAR-8 ovarian = test system: OVCAR-8 ovarian
IGROV1 ovarian = test system: IGROV1 ovarian
HT29 colon = test system: HT29 colon
COLO 205 colon = test system: COLO 205 colon
SK-MEL-5 melanoma = test system: SK-MEL-5 melanoma
MCF7 breast = test system: MCF7 breast

## CC12CC[C@@H]3c4cc5c(cc4CC[C@H]3[C@@H]1CCC2O)oc1cc(F)ccc15 (stereo partly specified)
SNB-19 CNS
  GI50: 19 µM
  TGI: 40.9 µM
NCI-H226 lung
  GI50: 14.9 µM
  TGI: 53 µM
HOP-92 NSCLC
  GI50: 21.1 µM
  TGI: 63 µM
SK-MEL-28 melanoma
  GI50: 20.2 µM
  TGI: 58.8 µM
HL-60(TB) leukemia
  GI50: 7.74 µM
  TGI: 39.2 µM
HS 578T breast
  GI50: 26.3 µM
  TGI: 49.6 µM
M14 melanoma
  GI50: 20.8 µM
  TGI: 74.1 µM
LOX IMVI melanoma
  GI50: 12.1 µM
  TGI: 24.5 µM
MDA-MB-231 breast
  GI50: 14.1 µM
  TGI: 34 µM
HCC-2998 colon
  GI50: 23.2 µM
  TGI: > 100 µM
786-0 renal
  GI50: 16.1 µM
  TGI: 37.4 µM
SN12C renal
  GI50: 19 µM
  TGI: 42.5 µM
SK-OV-3 ovarian
  GI50: 21.5 µM
  TGI: 52.1 µM
SNB-75 CNS
  GI50: 15.5 µM
  TGI: 35.5 µM
CAKI-1 renal
  GI50: 16.1 µM
  TGI: 37.4 µM
UACC-62 melanoma
  GI50: 24.4 µM
  TGI: > 100 µM
NCI-H23 lung
  GI50: 26.1 µM
  TGI: 99.5 µM
NCI/ADR-RES ovarian
  GI50: 18.6 µM
  TGI: 55.5 µM
KM12 colon
  GI50: 17.8 µM
  TGI: 45.5 µM
UO-31 renal
  GI50: 24.3 µM
  TGI: 68 µM
SF-539 CNS
  GI50: 22.7 µM
  TGI: 54.7 µM
SF-295 CNS
  GI50: 18.3 µM
  TGI: 40.2 µM
MOLT-4 leukemia
  GI50: 16.2 µM
  TGI: 40.6 µM
TK-10 renal
  GI50: 15.6 µM
  TGI: 33.9 µM
ACHN renal
  GI50: 15.8 µM
  TGI: 35.4 µM
SW-620 colon
  GI50: 25.6 µM
  TGI: 78.9 µM
OVCAR-3 ovarian
  GI50: 19.1 µM
  TGI: 43.3 µM
T-47D breast
  GI50: 12.3 µM
  TGI: 52.6 µM
SF-268 CNS
  GI50: 18.8 µM
  TGI: 62.8 µM
U251 CNS
  GI50: 14.1 µM
  TGI: 28.6 µM
BT-549 breast
  GI50: 17.7 µM
  TGI: 39.1 µM
RPMI-8226 leukemia
  GI50: 14.6 µM
  TGI: > 100 µM
MDA-MB-435
  GI50: 39.5 µM
  TGI: > 100 µM
PC-3 prostate
  GI50: 17.3 µM
  TGI: 43.2 µM
HCT-116 colon
  GI50: 13.9 µM
  TGI: 30.6 µM
K-562 leukemia
  GI50: 8.68 µM
  TGI: 47.7 µM
NCI-H460 lung
  GI50: 15.2 µM
  TGI: 36.3 µM
UACC-257 melanoma
  GI50: 21.6 µM
  TGI: 74.8 µM
HOP-62 NSCLC
  GI50: 18.7 µM
  TGI: 45.4 µM
A549 NSCLC
  GI50: 33.1 µM
  TGI: > 100 µM
OVCAR-5 ovarian
  GI50: 24.8 µM
  TGI: > 100 µM
NCI-H522 lung
  GI50: 23.2 µM
  TGI: > 100 µM
HCT-15 colon
  GI50: 10.8 µM
  TGI: 31.8 µM
DU-145 prostate
  GI50: 17.8 µM
  TGI: 31.6 µM
CCRF-CEM leukemia
  GI50: 27.9 µM
  TGI: > 100 µM
EKVX NSCLC
  GI50: 15.5 µM
  TGI: 49 µM
SR leukemia
  GI50: 15.9 µM
  TGI: 31 µM
OVCAR-4 ovarian
  GI50: 17 µM
  TGI: 55.6 µM
A498 renal
  TGI: 23.6 µM
MALME-3M melanoma
  GI50: 20.3 µM
  TGI: 49.8 µM
OVCAR-8 ovarian
  GI50: 20 µM
  TGI: 62.6 µM
IGROV1 ovarian
  GI50: 16.7 µM
  TGI: 36.9 µM
HT29 colon
  GI50: 12.5 µM
  TGI: 25 µM
COLO 205 colon
  GI50: 17.1 µM
  TGI: 36.2 µM
SK-MEL-5 melanoma
  GI50: 18.8 µM
  TGI: 36 µM
MCF7 breast
  GI50: 31.7 µM
  TGI: 82.7 µM
